Here are results for 27 molecules from patent US11377425B1, “Small molecule modulators of IL-17” (LEO Pharma A/S, priority 2018, dated 2022).

The target in this experiment is T1, human IL-17AA (Homo sapiens, UniProt Q16552).
T1 construct: host or cells: HEK (human embryonic kidney) cells
T1 sequence (Q16552 24-155): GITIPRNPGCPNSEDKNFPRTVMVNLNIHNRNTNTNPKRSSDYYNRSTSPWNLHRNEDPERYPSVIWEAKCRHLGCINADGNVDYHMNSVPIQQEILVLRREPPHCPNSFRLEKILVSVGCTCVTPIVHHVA
The experiment in a line: IL-8 release assay in human epithelial keratinocytes adult (HEKa). In kind it is cell-based. As to conditions: HEKa cells, 3 ng/mL HEK-human IL-17AA + 10 ng/mL human TNFalpha; read-out: Rel EC50 IL-8 release assay. The gist of the method:
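IL-8 release, quantified by HTRF and normalized to controls, reports IL-17 signaling in HEKa cells treated with compound plus final 3 ng/mL IL-17AA (HEK-derived) and 10 ng/mL TNF-alpha for 68-72 h; TNF-alpha-only wells set 100% inhibition. Four-parameter logistic fits (r^2>0.9) give relative IC50 and Emax; PrestoBlue flags cytotoxicity.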

SMILES strings stand for the structures.

Broadly, the EC50 is the concentration needed to bring the measured effect to its halfway point.

With `Cc1n[nH]c(C)c1-c1ccc(NC(=O)[C@@H](NC(=O)C(C)(C)C)C(C2CC2)C2CC2)cc1` [Example 168, N-[(1S)-1-(dicyclopropylmethyl)-2-[4-(3,5-dimethyl-1H-pyrazol-4-yl)anilino]-2-oxo-ethyl]-2,2-dimethyl-propanamide], the EC50 is more than 1000 nM. For `Cc1n[nH]c(C)c1-c1ccc(NC(=O)[C@@H](NC(=O)C2CCC2)C(C2CC2)C2CC2)cc1` [Example 169, N-[(1S)-1-(dicyclopropylmethyl)-2-[4-(3,5-dimethyl-1H-pyrazol-4-yl)anilino]-2-oxo-ethyl]cyclobutane carboxamide] the value was more than 1000 nM; for `Cc1n[nH]c(C)c1-c1ccc(NC(=O)[C@@H](NC(=O)C2CCCC2)C(C2CC2)C2CC2)cc1` [Example 170, N-[(1S)-1-(dicyclopropylmethyl)-2-[4-(3,5-dimethyl-1H-pyrazol-4-yl)anilino]-2-oxo-ethyl]cyclopentane carboxamide], 100 to 1000 nM; for `Cc1n[nH]c(C)c1-c1ccc(NC(=O)[C@@H](NC(=O)c2ccnn2C(C)C#N)C(C2CC2)C2CC2)cc1` (stereo partly drawn) [Example 171, 2-(1-cyanoethyl)-N-[(1S)-1-(dicyclopropylmethyl)-2-[4-(3,5-dimethyl-1H-pyrazol-4-yl)anilino]-2-oxo-ethyl]pyrazole-3-carboxamide], more than 1000 nM.

Turning to `Cc1n[nH]c(C)c1-c1ccc(NC(=O)[C@@H](NC(=O)c2ccn(C(C)C#N)n2)C(C2CC2)C2CC2)cc1` (stereo partly drawn) [Example 172, 1-(1-cyanoethyl)-N-[(1S)-1-(dicyclopropylmethyl)-2-[4-(3,5-dimethyl-1H-pyrazol-4-yl)anilino]-2-oxo-ethyl]pyrazole-3-carboxamide], the half-maximal effective concentration (EC50) is more than 1000 nM.

In the case of `Cc1n[nH]c(C)c1-c1ccc(NC(=O)[C@@H](NC(=O)c2ccnn2CCC(O)C(F)(F)F)C(C2CC2)C2CC2)cc1` (stereo partly drawn) [Example 179, N-[(1S)-1-(dicyclopropylmethyl)-2-[4-(3,5-dimethyl-1H-pyrazol-4-yl)anilino]-2-oxo-ethyl]-2-(4,4,4-trifluoro-3-hydroxy-butyl)pyrazole-3-carboxamide], the EC50 is less than 100 nM. With `CCn1nccc1C(=O)N[C@H](C(=O)Nc1ccc(-c2c(C)n[nH]c2C)cc1)[C@@H]1CC2(CC2)CCC1(F)F` [Example 180, N-[(1S)-1-[(7S)-6,6-difluorospiro[2.5]octan-7-yl]-2-[4-(3,5-dimethyl-1H-pyrazol-4-yl)anilino]-2-oxo-ethyl]-2-ethyl-pyrazole-3-carboxamide], the EC50 is less than 100 nM. `Cc1n[nH]c(C)c1-c1ccc(NC(=O)[C@@H](NC(=O)c2ccnn2C(C)C)[C@@H]2CC3(CC3)CCC2(F)F)cc1` [Example 181, N-[(1S)-1-[(7S)-6,6-difluorospiro[2.5]octan-7-yl]-2-[4-(3,5-dimethyl-1H-pyrazol-4-yl)anilino]-2-oxo-ethyl]-2-isopropyl-pyrazole-3-carboxamide]: the EC50 was less than 100 nM. The same measure for `Cc1n[nH]c(C)c1-c1ccc(NC(=O)[C@@H](NC(=O)c2ccnn2CCO)C(C2CC2)C2CC2)cc1` [Example 183, N-[(1S)-1-(dicyclopropylmethyl)-2-[4-(3,5-dimethyl-1H-pyrazol-4-yl)anilino]-2-oxo-ethyl]-2-(2-hydroxyethyl)pyrazole-3-carboxamide]: 100 to 1000 nM.

Take `Cc1n[nH]c(C)c1-c1ccc(NC(=O)[C@@H](NC(=O)c2ccnn2CC(F)(F)F)C(C2CC2)C2CC2)cc1` [Example 184, N-[(1S)-1-(dicyclopropylmethyl)-2-[4-(3,5-dimethyl-1H-pyrazol-4-yl)anilino]-2-oxo-ethyl]-2-(2,2,2-trifluoroethyl)pyrazole-3-carboxamide]: the EC50 was less than 100 nM. As for `Cc1n[nH]c(C)c1-c1ccc(NC(=O)[C@@H](NC(=O)c2ccnn2CCC(C)O)C(C2CC2)C2CC2)cc1` (stereo partly drawn) [Example 185, N-[(1S)-1-(dicyclopropylmethyl)-2-[4-(3,5-dimethyl-1H-pyrazol-4-yl)anilino]-2-oxo-ethyl]-2-(3-hydroxybutyl)pyrazole-3-carboxamide], the EC50 was less than 100 nM.

Take `Cc1n[nH]c(C)c1-c1ccc(NC(=O)[C@@H](NC(=O)c2ccnn2CC(C)(F)F)C(C2CC2)C2CC2)cc1` [Example 186, N-[(1S)-1-(dicyclopropylmethyl)-2-[4-(3,5-dimethyl-1H-pyrazol-4-yl)anilino]-2-oxo-ethyl]-2-(2,2-difluoropropyl)pyrazole-3-carboxamide]: the EC50 is less than 100 nM.

As for `Cc1n[nH]c(C)c1-c1ccc(NC(=O)[C@@H](NC(=O)c2ccnn2C(C)C(F)F)C(C2CC2)C2CC2)cc1` (stereo partly drawn) [Example 189, N-[(1S)-1-(dicyclopropylmethyl)-2-[4-(3,5-dimethyl-1H-pyrazol-4-yl)anilino]-2-oxo-ethyl]-2-(2,2-difluoro-1-methyl-ethyl)pyrazole-3-carboxamide], the EC50 was less than 100 nM. For `Cc1n[nH]c(C)c1-c1ccc(NC(=O)[C@@H](NC(=O)c2ccnn2C)C(C)C(C)C)cc1` (stereo partly drawn) [Example 197] the value was 100 to 1000 nM. `Cc1n[nH]c(C)c1-c1ccc(NC(=O)[C@@H](NC(=O)c2ccn(C)n2)C(C2CC2)C2CC2)cc1` [Example 198, N-[(1S)-1-(dicyclopropylmethyl)-2-[4-(3,5-dimethyl-1H-pyrazol-4-yl)anilino]-2-oxo-ethyl]-1-methyl-pyrazole-3-carboxamide]: the EC50 is more than 1000 nM. As to `CCn1ccc(C(=O)N[C@H](C(=O)Nc2ccc(-c3c(C)n[nH]c3C)cc2)C(C2CC2)C2CC2)n1` [Example 199, N-[(1S)-1-(dicyclopropylmethyl)-2-[4-(3,5-dimethyl-1H-pyrazol-4-yl)anilino]-2-oxo-ethyl]-1-ethyl-pyrazole-3-carboxamide], the concentration giving a half-maximal response (EC50) is more than 1000 nM. For `Cc1n[nH]c(C)c1-c1ccc(NC(=O)[C@@H](NC(=O)c2ccnn2C(C)C)C2C3CC4CC(C3)CC2C4)cc1` (stereo partly drawn) [Example 200, N-[(1S)-1-(2-adamantyl)-2-[4-(3,5-dimethyl-1H-pyrazol-4-yl)anilino]-2-oxo-ethyl]-2-isopropyl-pyrazole-3-carboxamide] the value was less than 100 nM; for `CCn1nccc1C(=O)N[C@H](C(=O)Nc1ccc(-c2c(C)n[nH]c2C)cc1)C1C2CC3CC(C2)CC1C3` (stereo partly drawn) [Example 201, N-[(1S)-1-(2-adamantyl)-2-[4-(3,5-dimethyl-1H-pyrazol-4-yl)anilino]-2-oxo-ethyl]-2-ethyl-pyrazole-3-carboxamide], less than 100 nM. For `Cc1n[nH]c(C)c1-c1ccc(NC(=O)[C@@H](NC(=O)c2ccnn2C)C2C3CC4CC(C3)CC2C4)cc1` (stereo partly drawn) [Example 202, N-[(1S)-1-(2-adamantyl)-2-[4-(3,5-dimethyl-1H-pyrazol-4-yl)anilino]-2-oxo-ethyl]-2-methyl-pyrazole-3-carboxamide] the value was less than 100 nM; for `Cc1n[nH]c(C)c1-c1ccc(NC(=O)[C@@H](NC(=O)c2ccnn2CCC(C)O)[C@H]2CC[C@H](C)CC2)cc1` (stereo partly drawn) [Example 203, N-[(1S)-2-[4-(3,5-dimethyl-1H-pyrazol-4-yl)anilino]-1-(trans-4-methylcyclohexyl)-2-oxo-ethyl]-2-(3-hydroxybutyl)pyrazole-3-carboxamide], less than 100 nM. Regarding `COCCn1nccc1C(=O)N[C@H](C(=O)Nc1ccc(-c2c(C)n[nH]c2C)cc1)C(C1CC1)C1CC1` [Example 206, N-[(1S)-1-(dicyclopropylmethyl)-2-[4-(3,5-dimethyl-1H-pyrazol-4-yl)anilino]-2-oxo-ethyl]-2-(2-methoxyethyl)pyrazole-3-carboxamide], the EC50 is less than 100 nM. For `Cc1n[nH]c(C)c1-c1ccc(NC(=O)[C@@H](NC(=O)c2ccnn2CC#N)C(C2CC2)C2CC2)cc1` [Example 207, 2-(cyanomethyl)-N-[(1S)-1-(dicyclopropylmethyl)-2-[4-(3,5-dimethyl-1H-pyrazol-4-yl)anilino]-2-oxo-ethyl]pyrazole-3-carboxamide] the value was 100 to 1000 nM; for `Cc1n[nH]c(C)c1-c1ccc(NC(=O)[C@@H](NC(=O)c2ccnn2CCCO)[C@H]2CC[C@H](C)CC2)cc1` [Example 208, N-[(1S)-2-[4-(3,5-dimethyl-1H-pyrazol-4-yl)anilino]-1-(trans-4-methylcyclohexyl)-2-oxo-ethyl]-2-(3-hydroxypropyl)pyrazole-3-carboxamide], less than 100 nM; for `Cc1n[nH]c(C)c1-c1ccc(NC(=O)[C@@H](NC(=O)c2ccnn2CCCO)[C@@H]2CC(C)(C)CCC2(F)F)cc1` [Example 209, N-[(1S)-1-[(1S)-2,2-difluoro-5,5-dimethyl-cyclohexyl]-2-[4-(3,5-dimethyl-1H-pyrazol-4-yl)anilino]-2-oxo-ethyl]-2-(3-hydroxypropyl)pyrazole-3-carboxamide], less than 100 nM. For `Cc1n[nH]c(C)c1-c1ccc(NC(=O)[C@@H](NC(=O)c2ccnn2C(C)C)[C@@H]2CC(C)(C)CCC2(F)F)cc1` [Example 212, N-[(1S)-1-[(1S)-2,2-difluoro-5,5-dimethyl-cyclohexyl]-2-[4-(3,5-dimethyl-1H-pyrazol-4-yl)anilino]-2-oxo-ethyl]-2-isopropyl-pyrazole-3-carboxamide], the concentration for a half-maximal effect (EC50) was less than 100 nM. For `CCn1nccc1C(=O)N[C@H](C(=O)Nc1ccc(-c2c(C)n[nH]c2C)cc1)[C@@H]1CC(C)(C)CCC1(F)F` [Example 213, N-[(1S)-1-[(1S)-2,2-difluoro-5,5-dimethyl-cyclohexyl]-2-[4-(3,5-dimethyl-1H-pyrazol-4-yl)anilino]-2-oxo-ethyl]-2-ethyl-pyrazole-3-carboxamide] the value was less than 100 nM; for `Cc1n[nH]c(C)c1-c1ccc(NC(=O)[C@@H](NC(=O)c2ccnn2C)[C@@H]2CC(C)(C)CCC2(F)F)cc1` [Example 214, N-[(1S)-1-[(1S)-2,2-difluoro-5,5-dimethyl-cyclohexyl]-2-[4-(3,5-dimethyl-1H-pyrazol-4-yl)anilino]-2-oxo-ethyl]-2-methyl-pyrazole-3-carboxamide], less than 100 nM.
